Assay results from ChEMBL document CHEMBL4261603, “Development of high potent and selective Bcl-2 inhibitors bearing the structural elements of natural product artemisinin” (Eur J Med Chem, 2018).

How the values were obtained:
[1] = biological target: Apoptosis regulator Bcl-2 (Homo sapiens, UniProt P10415); assay: Inhibition of FAM-labelled Bax binding to Bcl2 (unknown origin) after 30 mins by fluorescence polarization assay
[2] = species on record: Homo sapiens; assay: Selectivity factor, ratio of IC50 for Bcl-xL (unknown origin) to Bcl2 (unknown origin)
[3] = biological target: Bcl-2-like protein 1 (Homo sapiens, UniProt Q07817); assay: Inhibition of FAM-labelled Bax binding to Bcl-xL (unknown origin) after 30 mins by fluorescence polarization assay
[4] = system: RS4-11; assay: Antiproliferative activity against human RS4:11 cells after 72 hrs by MTS assay; assay type: functional, cell-based; conditions: RS4-11, 72 h
[5] = system: Toledo; assay: Antiproliferative activity against human Toledo cells after 72 hrs by MTS assay; assay type: functional, cell-based
[6] = biological target: Voltage-gated inwardly rectifying potassium channel KCNH2 (Homo sapiens, UniProt Q12809); assay: Inhibition of human ERG
[7] = Apparent permeability across apical to basolateral side in human Caco2 cells at 20 uM; assay type: ADME, cell-based; conditions: Caco-2
[8] = Apparent permeability across basolateral to apical side in human Caco2 cells at 20 uM; assay type: ADME, cell-based; conditions: Caco-2
[9] = Efflux ratio of apparent permeability across […] to apical side in human Caco2 cells at 20 uM; assay type: ADME, cell-based; conditions: Caco-2

Bcl-2-like protein 1, sequence (Q07817 whole entry): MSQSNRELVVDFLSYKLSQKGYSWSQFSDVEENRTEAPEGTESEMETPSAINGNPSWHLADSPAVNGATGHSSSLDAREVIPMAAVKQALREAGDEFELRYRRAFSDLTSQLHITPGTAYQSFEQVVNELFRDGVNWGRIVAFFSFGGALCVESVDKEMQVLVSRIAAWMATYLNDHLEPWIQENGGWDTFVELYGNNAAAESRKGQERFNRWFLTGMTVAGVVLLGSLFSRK
Apoptosis regulator Bcl-2, sequence (P10415 whole entry): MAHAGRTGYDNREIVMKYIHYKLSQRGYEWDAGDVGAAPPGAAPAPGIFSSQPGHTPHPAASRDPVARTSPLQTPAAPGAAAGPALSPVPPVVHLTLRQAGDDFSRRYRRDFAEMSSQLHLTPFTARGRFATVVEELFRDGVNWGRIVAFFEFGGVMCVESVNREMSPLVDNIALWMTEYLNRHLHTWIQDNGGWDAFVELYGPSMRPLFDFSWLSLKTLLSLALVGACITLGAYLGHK
Voltage-gated inwardly rectifying potassium channel KCNH2, sequence (Q12809 whole entry): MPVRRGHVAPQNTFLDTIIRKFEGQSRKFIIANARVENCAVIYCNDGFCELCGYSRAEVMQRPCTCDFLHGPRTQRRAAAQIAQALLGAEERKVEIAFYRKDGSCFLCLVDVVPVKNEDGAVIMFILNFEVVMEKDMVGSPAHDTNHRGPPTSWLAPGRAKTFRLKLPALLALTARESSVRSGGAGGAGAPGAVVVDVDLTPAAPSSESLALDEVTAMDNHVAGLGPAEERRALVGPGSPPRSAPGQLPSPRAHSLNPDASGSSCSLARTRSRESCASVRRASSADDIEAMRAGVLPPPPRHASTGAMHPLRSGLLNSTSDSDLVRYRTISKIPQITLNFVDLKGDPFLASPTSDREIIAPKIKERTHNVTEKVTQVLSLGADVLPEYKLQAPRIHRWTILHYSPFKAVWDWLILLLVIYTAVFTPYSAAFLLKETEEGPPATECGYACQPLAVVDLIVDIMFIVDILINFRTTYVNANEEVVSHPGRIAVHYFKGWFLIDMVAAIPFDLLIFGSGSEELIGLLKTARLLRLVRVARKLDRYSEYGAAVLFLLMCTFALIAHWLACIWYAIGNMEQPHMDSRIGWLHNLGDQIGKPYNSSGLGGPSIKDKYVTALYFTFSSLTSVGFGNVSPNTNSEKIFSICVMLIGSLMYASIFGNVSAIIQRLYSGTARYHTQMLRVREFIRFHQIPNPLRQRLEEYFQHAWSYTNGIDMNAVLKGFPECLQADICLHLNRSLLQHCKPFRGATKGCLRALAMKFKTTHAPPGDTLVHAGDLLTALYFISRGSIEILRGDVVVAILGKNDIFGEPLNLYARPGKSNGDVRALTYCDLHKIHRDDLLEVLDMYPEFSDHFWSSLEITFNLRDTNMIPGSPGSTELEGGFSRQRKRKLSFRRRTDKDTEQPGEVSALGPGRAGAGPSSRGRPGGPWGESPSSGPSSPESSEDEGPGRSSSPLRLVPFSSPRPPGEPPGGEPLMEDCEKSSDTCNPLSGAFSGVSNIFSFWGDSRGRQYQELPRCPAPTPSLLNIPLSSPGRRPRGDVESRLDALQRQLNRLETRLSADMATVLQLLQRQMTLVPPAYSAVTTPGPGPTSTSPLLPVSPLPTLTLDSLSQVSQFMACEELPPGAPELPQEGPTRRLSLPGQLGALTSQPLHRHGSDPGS

Row | Structure (SMILES) | IC50 [1] [nM] | Ratio IC50 [2] | IC50 [3] [nM] | IC50 [4] [nM] | IC50 [5] [nM] | IC50 [6] [nM] | Papp A→B at 20 µM [7] [×10⁻⁶ cm/s] | Papp B→A at 20 µM [8] [×10⁻⁶ cm/s] | efflux ratio at 20 µM [9]
1 | C[C@@H]1CC[C@H]2[C@@H](C)C(OCCN3CCN(c4ccc(C(=O)NS(=O)(=O)c5ccc(NCC6CCOCC6)c([N+](=O)[O-])c5)c(Oc5cnc6[nH]ccc6c5)c4)C[C@H]3CO)O[C@@H]3O[C@@]4(C)CC[C@@H]1[C@]32OO4 (stereo partly drawn) | 67.1 | 14.9 | > 1000 | > 1000 | > 1000 | – | – | – | –
2 | C[C@H]1[C@H](N(C)CCN2CCN(c3ccc(C(=O)NS(=O)(=O)c4ccc(NCC5CCOCC5)c([N+](=O)[O-])c4)c(Oc4cnc5[nH]ccc5c4)c3)CC2)O[C@@H]2O[C@@]3(C)CC[C@H]4[C@H](C)CC[C@@H]1[C@@]24OO3 | 16.7 | > 59.9 | > 1000 | – | – | – | – | – | –
3 | C[C@H]1[C@@H](CC(=O)N2CCN(c3ccc(C(=O)NS(=O)(=O)c4ccc(NCC5CCOCC5)c([N+](=O)[O-])c4)c(Oc4cnc5[nH]ccc5c4)c3)CC2)O[C@@H]2O[C@@]3(C)CC[C@H]4[C@H](C)CC[C@@H]1[C@@]24O3 | 3.5 | 77.2 | 270 | > 1000 | > 1000 | – | – | – | –
4 | C[C@@H]1CC[C@H]2[C@@](C)(O)[C@@H](OCCN3CCN(c4ccc(C(=O)NS(=O)(=O)c5ccc(NCC6CCOCC6)c([N+](=O)[O-])c5)c(Oc5cnc6[nH]ccc6c5)c4)CC3)O[C@@H]3O[C@@]4(C)CC[C@@H]1[C@]32OO4 | 86.5 | 3.3 | 287 | – | – | – | – | – | –
5 | C[C@H]1[C@@H](CCN2CCN(c3ccc(C(=O)NS(=O)(=O)c4ccc(NCC5CCOCC5)c([N+](=O)[O-])c4)c(Oc4cnc5[nH]ccc5c4)c3)CC2)O[C@@H]2O[C@@]3(C)CC[C@H]4[C@H](C)CC[C@@H]1[C@@]24OO3 | 9.7 | > 103 | > 1000 | – | – | – | – | – | –
6 | C[C@H]1[C@@H](CCCN2CCN(c3ccc(C(=O)NS(=O)(=O)c4ccc(NCC5CCOCC5)c([N+](=O)[O-])c4)c(Oc4cnc5[nH]ccc5c4)c3)CC2)O[C@@H]2O[C@@]3(C)CC[C@H]4[C@H](C)CC[C@@H]1[C@@]24OO3 | 1.2 | > 806 | > 1000 | 890 | 880 | > 40000 | – | – | –
7 | C[C@@H]1CC[C@H]2[C@@H](C)C(OCCN3CCN(c4ccc(C(=O)NS(=O)(=O)c5ccc(NCC6CCOCC6)c([N+](=O)[O-])c5)c(Oc5cnc6[nH]ccc6c5)c4)C[C@@H]3CO)O[C@@H]3O[C@@]4(C)CC[C@@H]1[C@]32OO4 (stereo partly drawn) | 28.7 | 34.8 | > 1000 | > 1000 | > 1000 | – | – | – | –
8 | C[C@H]1[C@@H](CC(=O)N2CCN(c3ccc(C(=O)NS(=O)(=O)c4ccc(NCC5CCOCC5)c([N+](=O)[O-])c4)c(Oc4cnc5[nH]ccc5c4)c3)CC2)O[C@@H]2O[C@@]3(C)CC[C@H]4[C@H](C)CC[C@@H]1[C@@]24OO3 | 11.9 | 9.16 | 109 | – | – | – | – | – | –
9 | CO[C@H]1OC2O[C@@]3(C)CC[C@H]4[C@H](C)CC[C@@H]([C@]1(C)CC(=O)N1CCN(c5ccc(C(=O)NS(=O)(=O)c6ccc(NCC7CCOCC7)c([N+](=O)[O-])c6)c(Oc6cnc7[nH]ccc7c6)c5)CC1)[C@@]24OO3 (stereo partly drawn) | 34.7 | > 28.8 | > 1000 | – | – | – | – | – | –
10 | C[C@H]1[C@@H](OCCN2CCN(c3ccc(C(=O)NS(=O)(=O)c4ccc(NCC5CCOCC5)c([N+](=O)[O-])c4)c(Oc4cnc5[nH]ccc5c4)c3)CC2)O[C@@H]2O[C@@]3(C)CC[C@H]4[C@H](C)CC[C@@H]1[C@@]24O3 | 2.2 | 280 | 624 | 4400 | 9700 | – | – | – | –
11 | C[C@H]1[C@@H](OCCN2CCN(c3ccc(C(=O)NS(=O)(=O)c4ccc(NCC5CCOCC5)c([N+](=O)[O-])c4)c(Oc4cnc5[nH]ccc5c4)c3)CC2)O[C@@H]2O[C@@]3(C)CC[C@H]4[C@H](C)CC[C@@H]1[C@@]24OO3 | 5 | 55.3 | 279 | 520 | 950 | > 40000 | 0.21 | 6.07 | 28.8
12 | C[C@H]1[C@@H](CCN2CCN(c3ccc(C(=O)NS(=O)(=O)c4ccc(NCC5CCOCC5)c([N+](=O)[O-])c4)c(Oc4cnc5[nH]ccc5c4)c3)CC2)O[C@@H]2O[C@@]3(C)CC[C@H]4[C@H](C)CC[C@@H]1[C@@]24O3 | 1.8 | > 546 | > 1000 | 1300 | 2600 | – | – | – | –
13 | C[C@@H]1CC[C@@H]2[C@]34OO[C@](C)(CC[C@@H]13)O[C@H]4O[C@]2(C)C(=O)N1CCN(c2ccc(C(=O)NS(=O)(=O)c3ccc(NCC4CCOCC4)c([N+](=O)[O-])c3)c(Oc3cnc4[nH]ccc4c3)c2)CC1 | 13 | 39.2 | 512 | – | – | – | – | – | –
14 | C[C@H]1[C@@H](CC(=O)N2CCN(c3ccc(C(=O)NS(=O)(=O)c4ccc(NCC5CCOCC5)c([N+](=O)[O-])c4)c(Oc4cnc5[nH]ccc5c4)c3)CC2)O[C@@H]2O[C@]3(C)O[C@]24[C@H]1CC[C@@H](C)[C@@H]4C[C@H]3O | 50.1 | 15.3 | 765 | > 1000 | > 1000 | – | – | – | –
15 | C[C@@H]1CC[C@H]2[C@@H](C)C(OCCNC3CCN(c4ccc(C(=O)NS(=O)(=O)c5ccc(NCC6CCOCC6)c([N+](=O)[O-])c5)c(Oc5cnc6[nH]ccc6c5)c4)CC3)O[C@@H]3O[C@@]4(C)CC[C@@H]1[C@]32OO4 (stereo partly drawn) | 1.9 | > 526 | > 1000 | > 1000 | > 1000 | – | – | – | –
16 | CC1(C)CCC(CN2CCN(c3ccc(C(=O)NS(=O)(=O)c4ccc(NCC5CCOCC5)c([N+](=O)[O-])c4)c(Oc4cnc5[nH]ccc5c4)c3)CC2)=C(c2ccc(Cl)cc2)C1 [VENETOCLAX] | – | – | – | 6 | 11 | – | – | – | –
17 | C[C@H]1[C@@H](OCCN2CCN(c3ccc(C(=O)NS(=O)(=O)c4ccc(NCC5CCOCC5)c([N+](=O)[O-])c4)c(Oc4cnc5[nH]ccc5c4)c3)CC2)O[C@@H]2O[C@]3(C)O[C@]24[C@H]1CC[C@@H](C)[C@@H]4C[C@H]3O | 31.9 | > 31.3 | > 1000 | – | – | – | – | – | –
18 | C[C@@H]1CC[C@H]2C(CN3CCN(c4ccc(C(=O)NS(=O)(=O)c5ccc(NCC6CCOCC6)c([N+](=O)[O-])c5)c(Oc5cnc6[nH]ccc6c5)c4)CC3)=C(C(F)(F)F)O[C@@H]3O[C@@]4(C)CC[C@@H]1[C@]32O4 | 2.8 | 343 | 970 | 1900 | 7400 | – | – | – | –
19 | C[C@@H]1CC[C@H]2C(CN3CCN(c4ccc(C(=O)NS(=O)(=O)c5ccc(NCC6CCOCC6)c([N+](=O)[O-])c5)c(Oc5cnc6[nH]ccc6c5)c4)CC3)=C(C(F)(F)F)O[C@@H]3O[C@@]4(C)CC[C@@H]1[C@]32OO4 | 6.2 | 11.7 | 71.9 | > 1000 | > 1000 | – | – | – | –
